Columns and labels:
wt CFTR (CFTR channel) = target: T1, wt CFTR (CFTR channel) (Homo sapiens, UniProt P13569); experiment: TECC assay on normal primary human bronchial epithelial (HBE) cells; type: cell-based; conditions: 0.3 μM forskolin
T1 construct: evaluate compounds on normal primary bronchial epithelial cells (HBE cells); endogenous in cells; host or cells: normal primary human bronchial epithelial (HBE) cells from donor lungs
Protocol: The TECC assay is used to evaluate compounds on normal primary bronchial epithelial cells (HBE cells), which are closer to physiological conditions
Bronchial epithelial cells isolated from transplanted lungs from normal (wt CFTR) were isolated from lungs obtained from donors undergoing a planned transplantation. These primary cells were cultured directly on type IV collagen-coated polycarbonate Transwell supports with a diameter of 6.5 mm and pore size of 0.4 μm (Costar, #3397) for 18 to 25 days in air liquid (ali) interface essentially as previously described for TECC. (Fulcher et al. 2005)
Trans-epithelial clamp circuit (TECC) recordings were performed using the TECC instrument developed and sold by EP Design (Bertem, Belgium). During the recording, the epithelial cells were bathed in a NaCl-Ringer solution (120 mM NaCl, 20 mM HEPES, 1.2 mM CaCl2, 1.2 mM MgCl2, 0.8 mM KH2PO4, 0.8 mM K2HPO4, 5 mM glucose, pH 7.4) on both the basolateral (640 μl) and the apical side (160 μl) and kept at 37° C. Apical amiloride was used to inhibit the endogenous ENaC currents (100 μM) while forskolin (0.3 μM) was applied on both the apical and basolateral sides to stimulate CFTR. All triggers and compounds used during the experiment were first dissolved in DMSO to a 1000× concentrated solution, just prior to treatment a 10× stock was prepared in the NaCl-Ringer solution which was used for addition of the correct concentration of trigger and or compound during the experiment. Cells were treated with test compounds for 24 hours before recording and this treatment was repeated in the TECC buffer prior to the electrophysiological recording. Measurements were done during a 20-min timeframe with recordings every 2 min. The transepithelial potential (PD) and transepithelial resistance (Rt) were measured in an open circuit and transformed to Ieq using Ohm's law. The maximal increase in Ieq (Δ Ieq) was used as a measure for the increased CFTR activity.

wild type human CFTR = target: T2, wild type human CFTR (Homo sapiens, UniProt P13569); experiment: Yellow Fluorescent Protein (YFP) halide assay in wild type CFTR (HEK293 cells); type: cell-based; conditions: HEK293 cells transfected with wild type human CFTR; 24 h incubation; 10 μM forskolin; read-out: EC50 of inhibition of WT CFTR
T2 construct: expressed in transfected cells; host or cells: HEK293
Protocol: To evaluate the ability of a test compound to inhibit wild type CFTR, a YFP halide assay using HEK293 cells transfected with wild type human CFTR was developed. (Galietta, Jayaraman, and Verkman 2001) Cells were incubated during 24 h with a dose range of test compound and the resulting wild type CFTR activity was plotted to obtain the EC50.
Test compounds were also added together with forskolin to wild type CFTR expressing cells in order to fully active the available CFTR at the plasma membrane and determine accurately the inhibition of the channel activity.
HEK293 cells were transfected with 10 to 80 ng of wild type CFTR and 20 ng of plasmid encoding YFP (H148Q/I152L/F47L) using jetPEI (Polyplus transfection). Directly after transfection, cells were seeded in black 96-well plates coated with Poly-D-lysine at a density of 70,000 cells per well. The next day, cells were treated with corrector(s) for 24 h. After this incubation period, cells were washed twice with DPBS with Ca^2+ and Mg^2+. Subsequently, cells were treated with 10 μM forskolin and the desired concentration of potentiator in a volume of 40 μl and incubated at room temperature for 10 min, a time point optimized in previous experiments resulting in a good window (positive control/negative control >2) and signal to background ratio. YFP fluorescence was measured using an EnVision plate reader (PerkinElmer). […]

[1] = test system: PKD1^flox/flox / ubiquitous CreER^T2 mice; experiment: In vivo ADPKD mice model in combination with tolvaptan (meta-analysis of two experiments)
Text: The ADPKD mice model is based on PKD1^flox/flox (with lox sites flanking exons 2-4)/ubiquitous CreER^T2 mice in which the PKD1 gene is ubiquitously knock-out by the activation of the Cre recombinase by treatment of the mice with Tamoxifen at day 12 after birth (in nursing female). Homozygotous knock-out of the PKD1 gene leads to the rapid formation of kidney cysts mimicking to a certain extend the development of ADPKD disease in human.
Before experimentations, mouse colonies of PKD1^flox/flox (with lox sites flanking exons 2-4)/ubiquitous CreER^T2 were maintained at Charles River Laboratories (France). To induce Cre recombinase activity, tamoxifen (60 mg/kg in sunflower oil) was delivered in nursing females by intraperitoneal injection at postnatal day 12. Subsequently, tamoxifen-containing milk was administered to pups. Treatments started at 4 weeks of age for 11 weeks. Tolvaptan was incorporated in diet (0.1%) and given alone or in combination with Cpd 2, administered at 250 mg/kg, q. d., p.o. At initiation of treatment and on a regular basis during the study, serum was collected to determine levels of blood urea nitrogen (BUN) on a Spotchem bioanalyzer. At necropsy, kidneys were collected and weighed to determine kidney weight/body weight ratio.
Two independent experiments were conducted.
A two-way ANOVA with Dunnett post-hoc multiple comparisons of all experimental groups versus the diseased group has been applied to the log Fold Change (log FC) of BUN ([…]) at sacrifice (Week 15) versus BUN at Week 4 as function of Group and Study.
The mean fold change at week 15 (sacrifice) vs week 4 (treatment initiation) is calculated, assuming a 100% change for the diseased group (untreated).

T1 sequence (P13569 whole entry): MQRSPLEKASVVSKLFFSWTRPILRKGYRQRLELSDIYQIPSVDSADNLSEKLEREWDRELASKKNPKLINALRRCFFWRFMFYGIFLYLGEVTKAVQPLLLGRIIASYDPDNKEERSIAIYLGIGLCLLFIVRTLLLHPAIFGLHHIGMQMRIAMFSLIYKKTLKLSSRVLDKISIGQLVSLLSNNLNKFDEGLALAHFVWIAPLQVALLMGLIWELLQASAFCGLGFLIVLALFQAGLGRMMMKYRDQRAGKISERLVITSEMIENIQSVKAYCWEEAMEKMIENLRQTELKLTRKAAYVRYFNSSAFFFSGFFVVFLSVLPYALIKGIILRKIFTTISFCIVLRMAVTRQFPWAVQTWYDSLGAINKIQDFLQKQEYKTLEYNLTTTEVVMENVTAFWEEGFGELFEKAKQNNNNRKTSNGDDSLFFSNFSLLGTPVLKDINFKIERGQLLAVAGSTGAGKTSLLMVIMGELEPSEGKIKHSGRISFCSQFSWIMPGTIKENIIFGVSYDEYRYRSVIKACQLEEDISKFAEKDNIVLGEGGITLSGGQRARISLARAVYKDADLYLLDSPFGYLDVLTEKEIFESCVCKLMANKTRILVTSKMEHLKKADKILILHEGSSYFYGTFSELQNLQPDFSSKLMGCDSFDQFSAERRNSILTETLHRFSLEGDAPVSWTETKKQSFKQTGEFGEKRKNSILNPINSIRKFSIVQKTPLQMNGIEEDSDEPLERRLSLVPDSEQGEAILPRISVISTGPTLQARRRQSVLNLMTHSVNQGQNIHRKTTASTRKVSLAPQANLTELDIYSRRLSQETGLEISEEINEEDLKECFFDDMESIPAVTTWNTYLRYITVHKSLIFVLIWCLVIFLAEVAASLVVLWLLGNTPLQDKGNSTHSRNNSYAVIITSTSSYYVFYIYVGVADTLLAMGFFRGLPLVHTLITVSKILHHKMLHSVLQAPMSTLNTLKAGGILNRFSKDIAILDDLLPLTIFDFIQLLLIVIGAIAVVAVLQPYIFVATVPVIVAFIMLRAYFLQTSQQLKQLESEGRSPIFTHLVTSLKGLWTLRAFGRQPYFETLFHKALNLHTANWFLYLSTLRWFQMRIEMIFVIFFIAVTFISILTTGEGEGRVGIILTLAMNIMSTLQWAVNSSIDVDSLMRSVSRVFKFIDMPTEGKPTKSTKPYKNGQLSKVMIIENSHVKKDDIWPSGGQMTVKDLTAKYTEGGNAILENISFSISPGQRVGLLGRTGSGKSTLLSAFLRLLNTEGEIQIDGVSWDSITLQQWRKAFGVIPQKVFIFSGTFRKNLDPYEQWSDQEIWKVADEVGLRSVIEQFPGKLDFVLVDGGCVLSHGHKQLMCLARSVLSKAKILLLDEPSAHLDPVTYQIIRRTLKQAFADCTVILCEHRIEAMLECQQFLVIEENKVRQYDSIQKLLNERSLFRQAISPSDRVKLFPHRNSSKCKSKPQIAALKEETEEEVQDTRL
T2 sequence (P13569 whole entry): as above

Row | SMILES | pIC50 (wt CFTR (CFTR channel)) | IC50 (wt CFTR (CFTR channel); read-out: IC50 value (resulting from pIC50) (converted)) [µM] | EC50 (wild type human CFTR) [µM] | BUN Mean fold changes on week 15 vs week 4 ([1]; Cpd 2 250 mg/kg q.d. p.o., Tolvaptan 0.1% in diet, treatment from 4 weeks of age for 11 weeks) | BUN fold change vs the diseased group (in words) ([1]; administered from week 4 to week 15) | BUN % of Mean Diseased fold change ([1]; week 15 vs week 4, diseased group = 100, Cpd 2 250 mg/kg q.d. p.o., Tolvaptan 0.1% in diet) [%]
1 | COC1CCN(C2CCN(c3cc(C(=O)NS(=O)(=O)N(C)C)nc4c3c(C3CCC3)nn4-c3ccc(F)cc3)CC2)CC1 [Cpd 2] | 7.50 | 0.032 | 0.102 | – | – | –
2 | Cc1ccccc1C(=O)Nc1ccc(C(=O)N2CCCC(O)c3cc(Cl)ccc32)c(C)c1 (stereo not drawn) [Tolvaptan, tolvaptan] | – | – | – | 1.889 | did not result in a significant fold change | 80.7

From patent US12383544B2, “Methods for the treatment of polycystic kidney disease” (Galapagos NV, priority 2019, dated 2025)
